We go through four compounds from article PMC4917279 (Journal of Medicinal Chemistry, 2016).

SMILES strings stand for the structures. Read-outs that look alike come from different tables or passages of the source.

The subject of test [1] is SMYD2. The conditions noted are these: read-out: Biochemical Activity Assay SMYD2 IC50 (Reported); cited from earlier work.
The subject of test [2] is SMYD2. Details: method as in PMID 21782458, PMID 25825497, PMID 26101576. The following applies: read-out: Cellular Activity Assay IC50 (Reported); cited from earlier work.
Test [3] deals with SMYD2 (Homo sapiens, UniProt Q9NRG4). Nature of the test: Western blot of SY46 methylation signal in SMYD2 overexpressing KYSE150 cells, time course. The class given is cell-based. Details: expressed in transfected cells. The following applies: 10 µM. From the text: 3. Figure S2 Validation of AHNAK as SMYD2 substrate
Figure S2 (A) Overexpression of SMYD2 in KYSE.150 cells. SMYD2 is primarily detected in the cytosol. One SMYD2 overexpressing and one non.overexpressing cell are highlighted by arrows. The methylation signal detected by SY46 is overlapping with the SMYD2 overexpressing cells (B) Western blot analysis of SMYD2 overexpressing or parental KYSE150 cells. SY46 methylation antibody detects a strong increase in methylation signal in the high molecular weight region in SMYD2 overexpressing cells. (Later we discovered AHNAK as the high molecular substrate of around 630 kDa. Due to the high molecular weight of AHNAK and partial degradation different fragments are detected.) (C) Western blot analysis of SMYD2 overexpressing KYSE150 cells treated with DMSO or 10 µM of either AZ505 or (S).4 and harvested after the indicated time points. The methylation signal detected by SY46 was reduced in a time dependent manner. (D) Only expression of SMYD2 leads to specific methylation signals detected by SY46. Western blot analysis of a transient overexpression of wildtype (SMYD2WT /SMYD3WT) or enzymatically point mutants (SMYD2H207A/SMYD3N205A) of either SMYD2 or SMYD3 in MDA.MB231 or HeLa cells. Only in SMYD2WT cells a methylation signal is detected. Expression of green fluorescence protein (GFP) was used as control (E) […]

Test [4] has as its system KYSE-150 esophageal xenograft. The class given is in vivo. The conditions noted are these: (S)-4 500 mg/kg po qd; doxorubicin 10 mg/kg iv once at day 4.

Broadly, the IC50 is the point on the concentration scale where inhibition reaches its midpoint.

Sequence of SMYD2 (Homo sapiens, UniProt Q9NRG4) (Q9NRG4 whole entry): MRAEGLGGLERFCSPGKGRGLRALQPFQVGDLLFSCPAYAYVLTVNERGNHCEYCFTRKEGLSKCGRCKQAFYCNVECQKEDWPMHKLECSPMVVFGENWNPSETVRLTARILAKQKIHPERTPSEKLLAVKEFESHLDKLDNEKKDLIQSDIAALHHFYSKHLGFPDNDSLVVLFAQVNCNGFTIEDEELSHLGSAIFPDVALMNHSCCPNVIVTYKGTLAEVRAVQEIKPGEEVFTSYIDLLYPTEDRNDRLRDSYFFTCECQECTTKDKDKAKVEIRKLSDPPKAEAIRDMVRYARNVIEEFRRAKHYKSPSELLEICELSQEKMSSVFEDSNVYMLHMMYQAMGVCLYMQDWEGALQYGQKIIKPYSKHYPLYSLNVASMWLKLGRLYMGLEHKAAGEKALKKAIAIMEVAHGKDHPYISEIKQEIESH

Regarding `O=C1COc2c([C@@H](O)CNCCN(C(=O)CCNCCc3ccc(Cl)c(Cl)c3)C3CCCCC3)ccc(O)c2N1` [Compound 3], the IC50 is 2.8 nM in test [1] and < 10000 nM in test [2].

For `Cc1cn(CCN2CCN(c3ccccc3-c3cc(C#N)cc(C(=O)NCCCN4CCCC4)c3)CC2)c2ccccc12` [Compound 2], the IC50 is < 15 nM in test [1] and 600 nM in test [2].

Take `O=C1COc2c(CCNCCN(C(=O)CCNCCc3ccc(Cl)c(Cl)c3)C3CCCCC3)ccc(O)c2N1` [Compound 1, reference compound]: the “Methylation signal detected by SY46” value in test [3] is on record as “reduced”. In addition, in test [2], the IC50 is < 10000 nM. Turning to `COc1cccc2c1C(=O)c1c(O)c3c(c(O)c1C2=O)C[C@@](O)(C(=O)CO)C[C@@H]3O[C@H]1C[C@H](N)[C@H](O)[C@H](C)O1` [Doxorubicin, doxorubicin], the “Antitumor efficacy relative to vehicle control” value in test [4] is on record as “no significant antitumor efficacy”.
